Data from US7625894B2, “Pyrrolo[2,3-d]Pyrimidines as Protein Tyrosine Kinase Inhibitors” (Novartis AG, priority 2004, dated 2009).

Row | melting point [°C] | Compound
1 | 83 to 85 | CCC(O)(CC)c1ccc(-c2cc3c(N(CCOC)CCOC)ncnc3[nH]2)cc1 [Example 32, 3-(4-{4-[Bis-(2-methoxy-ethyl)-amino]-7H-pyrrolo[2,3-d]pyrimidin-6-yl}-phenyl)-pentan-3-ol]
2 | 220 to 221 | CCCN(C)c1ncnc2[nH]c(-c3ccc(CN4CCN(C)CC4)cc3)cc12 [Example 1, methyl-{6-[4-(4-methyl-piperazin-1-ylmethyl)phenyl]-7H-pyrrolo[2,3-d]pyrimidin-4-yl}-propylamine]
3 | > 300 | CNC(=O)c1ccc(-c2cc3c(NC)ncnc3[nH]2)cc1 [Example 21, N-Methyl-4-(4-methylamino-7H-pyrrolo[2,3-d]pyrimidin-6-yl)-benzamide]
4 | 165 to 167 | COCCN(CCOC)c1ncnc2[nH]c(-c3ccc(C(C)(C)O)cc3)cc12 [Example 31, 2-(4-{4-[Bis-(2-methoxy-ethyl)-amino]-7H-pyrrolo[2,3-d]pyrimidin-6-yl}-phenyl)-propan-2-ol]
5 | 243 to 245 | CN1CCN(C(=O)c2ccc(-c3cc4c(N5CCN(C)CC5)ncnc4[nH]3)cc2)CC1 [Example 8, (4-Methyl-piperazin-1-yl)-{4-[4-(4-methyl-piperazin-1-yl)-7H-pyrrolo[2,3-d]pyrimidin-6-yl]-phenyl}-methanone]
6 | 268 to 270 | CN(C)CCNc1ncnc2[nH]c(-c3ccc(C(=O)N4CCN(C)CC4)cc3)cc12 [Example 22, {4-[4-(2-Dimethylamino-ethylamino)-7H-pyrrolo[2,3-d]pyrimidin-6-yl]-phenyl}-(4-methyl-piperazin-1-yl)-methanone]
7 | 175 to 177 | CCC(O)(CC)c1ccc(-c2cc3c(NCCCN4CCOCC4)ncnc3[nH]2)cc1 [Example 30]

Row | Compound | melting point [°C]
8 | CCCCOCc1ccc(-c2cc3c(N(C)C)ncnc3[nH]2)cc1 [Example 26, [6-(4-Butoxymethyl-phenyl)-7H-pyrrolo[2,3-d]pyrimidin-4-yl]-dimethyl-amine] | 186 to 188
